Laboratory results: ChEMBL document CHEMBL5506073, “Discovery of Novel Ortho-Aminophenol Derivatives Targeting Lipid Peroxidation with Potent Antiferroptotic Activities” (J Med Chem, 2024)
Active and inactive are the calls of the source. The calls are words filed in the database; no cut-off is given here.

Columns and labels:
[1] = test system: Mus musculus; assay: Protection against kidney ischemia-reperfusion injury in C57BL/6 mouse model assessed as decrease in brush edges loss in kidney at 10 mg/kg, ip administered twice 1 hr prior to ischemia onset measured after 24 hrs post-ischemia by H and E staining based analysis; format: functional, organism-based; conditions: time 25.0 hrs
[2] = test system: SW480; assay: Inhibition of FIN56-induced ferroptosis in human SW480 cells assessed as cell viability at 200 nM incubated for 24 hrs by CCK8 assay; format: functional, cell-based
[3] = test system: HT-1080; assay: Inhibition of ferroptosis in human HT-1080 cells assessed as reversal of RSL3-induced swelling; format: functional, cell-based
[4] = test system: HT-1080; assay: Inhibition of RSL3-induced ferroptosis in human HT-1080 cells assessed as cell viability at 200 nM incubated for 24 hrs by CCK8 assay; format: functional, cell-based
[5] = test system: Mus musculus; assay: Protection against APAP-induced acute liver injury in overnight fasted C57BL/6 mouse model assessed as decrease in plasma ALT level at 10 mg/kg, ip administered 1 hr prior to APAP treatment measured after 12 hrs post-APAP treatment under continuous fasting condition; format: functional, organism-based; conditions: time 13.0 hrs
[6] = test system: HT-1080; assay: Effect on glutathione metabolic pathway in human HT-1080 cells assessed as change in SLC7A11 mRNA level by qRT-PCR analysis; format: functional, cell-based
[7] = test system: SW480; assay: Inhibition of RSL3-induced ferroptosis in human SW480 cells assessed as cell viability at 200 nM incubated for 24 hrs by CCK8 assay; format: functional, cell-based
[8] = test system: Mus musculus; assay: Protection against APAP-induced acute liver injury in overnight fasted C57BL/6 mouse model assessed as normal pathology of liver at 10 mg/kg, ip administered 1 hr prior to APAP treatment measured after 12 hrs post-APAP treatment under continuous fasting condition by H and E staining based analysis; format: functional, organism-based; conditions: time 13.0 hrs
[9] = test system: HK-2; assay: Inhibition of RSL3-induced ferroptosis in human HK-2 cells assessed as cell viability at 200 nM incubated for 24 hrs by CCK8 assay; format: functional, cell-based
[10] = test system: Mus musculus; assay: Protection against APAP-induced acute liver injury in overnight fasted C57BL/6 mouse model assessed as decrease in plasma AST level at 10 mg/kg, ip administered 1 hr prior to APAP treatment measured after 12 hrs post-APAP treatment under continuous fasting condition; format: functional, organism-based; conditions: time 13.0 hrs
[11] = test system: HT-1080; assay: Inhibition of RSL3-induced ferroptosis in human HT-1080 cells assessed as cell viability at 0.5 uM incubated for 24 hrs by CCK8 assay; format: functional, cell-based
[12] = test system: HT-1080; assay: Inhibition of RSL3-induced ferroptosis in human HT-1080 cells assessed as cell viability incubated for 24 hrs by CCK8 assay; format: functional, cell-based; conditions: HT-1080, 24 h
[13] = test system: HTR-8/SVneo; assay: Inhibition of RSL3-induced ferroptosis in human HTR-8/SVneo cells assessed as cell viability at 200 nM incubated for 24 hrs by CCK8 assay; format: functional, cell-based
[14] = test system: KHOS/NP; assay: Inhibition of RSL3-induced ferroptosis in human KHOS/NP cells assessed as cell viability at 200 nM incubated for 24 hrs by CCK8 assay; format: functional, cell-based
[15] = Antioxidant activity assessed as DPPH radical scavenging activity at 20 uM incubated for 30 mins by absorbance based assay; format: functional
[16] = test system: Mus musculus; assay: Protection against kidney ischemia-reperfusion injury in C57BL/6 mouse model assessed as decrease in BUN level at 10 mg/kg, ip administered twice 1 hr prior to ischemia onset measured after 24 hrs post-ischemia; format: functional, organism-based; conditions: time 25.0 hrs
[17] = test system: HT-1080; assay: Inhibition of ferroptosis in human HT-1080 cells assessed as reversal of RSL3-induced normal morphological loss; format: functional, cell-based
[18] = test system: HT-1080; assay: Effect on iron metabolism in human HT-1080 cells assessed as change in DMT1 mRNA level by qRT-PCR analysis; format: functional, cell-based
[19] = test system: KHOS/NP; assay: Inhibition of FIN56-induced ferroptosis in human KHOS/NP cells assessed as cell viability at 200 nM incubated for 24 hrs by CCK8 assay; format: functional, cell-based
[20] = test system: HT-1080; assay: Effect on iron metabolism in human HT-1080 cells assessed as change in FTH1 mRNA level by qRT-PCR analysis; format: functional, cell-based
[21] = test system: HT-1080; assay: Effect on glutathione metabolic pathway in human HT-1080 cells assessed as change in GPX4 mRNA level by qRT-PCR analysis; format: functional, cell-based
[22] = test system: HT-1080; assay: Inhibition of ferroptosis in human HT-1080 cells assessed as reversal of RSL3-induced membrane rupture; format: functional, cell-based
[23] = test system: HT-1080; assay: Inhibition of RSL3-induced lipid peroxidation in human HT-1080 cells assessed as reduction in green fluorescence by C11-BODIPY581/591 probe based analysis; format: functional, cell-based
[24] = test system: HT-1080; assay: Inhibition of RSL3-induced lipid peroxidation in human HT-1080 cells assessed as reduction in MDA adduct accumulation by ELISA; format: functional, cell-based
[25] = test system: HT-1080; assay: Effect on lipid metabolism in human HT-1080 cells assessed as change in ALOX15 mRNA level by qRT-PCR analysis; format: functional, cell-based
[26] = test system: Mus musculus; assay: Protection against APAP-induced acute liver injury in overnight fasted C57BL/6 mouse model assessed as reversal of native liver architecture at 10 mg/kg, ip administered 1 hr prior to APAP treatment measured after 12 hrs post-APAP treatment under continuous fasting condition by H and E staining based analysis; format: functional, organism-based; conditions: time 13.0 hrs
[27] = test system: HT-1080; assay: Effect on iron metabolism in human HT-1080 cells assessed as change in TFRC mRNA level by qRT-PCR analysis; format: functional, cell-based
[28] = test system: Mus musculus; assay: Protection against kidney ischemia-reperfusion injury in C57BL/6 mouse model assessed as decrease in KIM-1 level in kidney at 10 mg/kg, ip administered twice 1 hr prior to ischemia onset measured after 24 hrs post-ischemia by IHC analysis; format: functional, organism-based; conditions: time 25.0 hrs
[29] = test system: Mus musculus; assay: Protection against APAP-induced acute liver injury in overnight fasted C57BL/6 mouse model assessed as reduction in 4-HNE formation in liver at 10 mg/kg, ip administered 1 hr prior to APAP treatment measured after 12 hrs post-APAP treatment under continuous fasting condition by IHC analysis; format: functional, organism-based; conditions: time 13.0 hrs
[30] = test system: HKC; assay: Inhibition of FIN56-induced ferroptosis in human HKC cells assessed as cell viability at 200 nM incubated for 24 hrs by CCK8 assay; format: functional, cell-based
[31] = test system: HKC; assay: Inhibition of RSL3-induced ferroptosis in human HKC cells assessed as cell viability at 200 nM incubated for 24 hrs by CCK8 assay; format: functional, cell-based
[32] = test system: HK-2; assay: Inhibition of FIN56-induced ferroptosis in human HK-2 cells assessed as cell viability at 200 nM incubated for 24 hrs by CCK8 assay; format: functional, cell-based
[33] = test system: Mus musculus; assay: Protection against APAP-induced acute liver injury in overnight fasted C57BL/6 mouse model assessed as reduction in necrotic areas of liver at 10 mg/kg, ip administered 1 hr prior to APAP treatment measured after 12 hrs post-APAP treatment under continuous fasting condition by H and E staining based analysis; format: functional, organism-based; conditions: time 13.0 hrs
[34] = test system: HT-1080; assay: Inhibition of FIN56-induced ferroptosis in human HT-1080 cells assessed as cell viability at 200 nM incubated for 24 hrs by CCK8 assay; format: functional, cell-based
[35] = test system: Mus musculus; assay: Protection against kidney ischemia-reperfusion injury in C57BL/6 mouse model assessed as decrease in renal tubule dilation at 10 mg/kg, ip administered twice 1 hr prior to ischemia onset measured after 24 hrs post-ischemia by H and E staining based analysis; format: functional, organism-based; conditions: time 25.0 hrs
[36] = test system: HT-1080; assay: Effect on lipid metabolism in human HT-1080 cells assessed as change in COX2 mRNA level by qRT-PCR analysis; format: functional, cell-based
[37] = test system: HT-1080; assay: Effect on lipid metabolism in human HT-1080 cells assessed as change in ACSL4 mRNA level by qRT-PCR analysis; format: functional, cell-based
[38] = test system: Mus musculus; assay: Protection against kidney ischemia-reperfusion injury in C57BL/6 mouse model assessed as decrease in cytoplasmic vacuoles in kidney at 10 mg/kg, ip administered twice 1 hr prior to ischemia onset measured after 24 hrs post-ischemia by H and E staining based analysis; format: functional, organism-based; conditions: time 25.0 hrs
[39] = Antioxidant activity assessed as DPPH radical scavenging activity at 10 uM incubated for 30 mins by absorbance based assay; format: functional
[40] = test system: HT-1080; assay: Inhibition of ferroptosis in human HT-1080 cells assessed as reversal of RSL3-induced cell shrinkage; format: functional, cell-based
[41] = test system: HTR-8/SVneo; assay: Inhibition of FIN56-induced ferroptosis in human HTR-8/SVneo cells assessed as cell viability at 200 nM incubated for 24 hrs by CCK8 assay; format: functional, cell-based
[42] = test system: Mus musculus; assay: Protection against kidney ischemia-reperfusion injury in C57BL/6 mouse model assessed as decrease in serum creatinine level at 10 mg/kg, ip administered twice 1 hr prior to ischemia onset measured after 24 hrs post-ischemia; format: functional, organism-based; conditions: time 25.0 hrs

CC(C)COC(=O)c1cccc(O)c1N
Activity [1]: Active | inhibition [2]: Active | inhibition [3]: Active | inhibition [4]: Active | Activity [5]: Active | Activity [6]: inactive | inhibition [7]: Active | Activity [8]: Active | inhibition [9]: Active | Activity [10]: Active | inhibition [11]: Active | EC50 [12]: 0.158 µM | inhibition [13]: Active | inhibition [14]: Active | Activity [15]: Active | Activity [16]: Active | inhibition [17]: Active | Activity [18]: inactive | inhibition [19]: Active | Activity [20]: inactive | Activity [21]: inactive | inhibition [22]: Active | inhibition [23]: Active | inhibition [24]: Active | Activity [25]: inactive | Activity [26]: Active | Activity [27]: inactive | Activity [28]: Active | Activity [29]: Active | inhibition [30]: Active | inhibition [31]: Active | inhibition [32]: Active | Activity [33]: Active | inhibition [34]: Active | Activity [35]: Active | Activity [36]: inactive | Activity [37]: inactive | Activity [38]: Active | Activity [39]: Active | inhibition [40]: Active | inhibition [41]: Active | Activity [42]: Active

Cc1ccc(CSc2nnc(-c3cccc(O)c3N)o2)cc1
Activity [1]: Active | inhibition [2]: Active | inhibition [3]: Active | inhibition [4]: Active | Activity [5]: Active | Activity [6]: inactive | inhibition [7]: Active | Activity [8]: Active | inhibition [9]: Active | Activity [10]: Active | EC50 [12]: 0.046 µM | inhibition [13]: Active | inhibition [14]: Active | Activity [15]: Active | Activity [16]: Active | inhibition [17]: Active | Activity [18]: inactive | inhibition [19]: Active | Activity [20]: inactive | Activity [21]: inactive | inhibition [22]: Active | inhibition [23]: Active | inhibition [24]: Active | Activity [25]: inactive | Activity [26]: Active | Activity [27]: inactive | Activity [28]: Active | Activity [29]: Active | inhibition [30]: Active | inhibition [31]: Active | inhibition [32]: Active | Activity [33]: Active | inhibition [34]: Active | Activity [35]: Active | Activity [36]: inactive | Activity [37]: inactive | Activity [38]: Active | inhibition [40]: Active | inhibition [41]: Active | Activity [42]: Active

Cc1cc2nc(-c3cccc(O)c3N)[nH]c2cc1C
Activity [1]: Active | inhibition [2]: Active | inhibition [3]: Active | inhibition [4]: Active | Activity [5]: Active | Activity [6]: inactive | inhibition [7]: Active | Activity [8]: Active | inhibition [9]: Active | Activity [10]: Active | EC50 [12]: 0.181 µM | inhibition [13]: Active | inhibition [14]: Active | Activity [15]: Active | Activity [16]: Active | inhibition [17]: Active | Activity [18]: inactive | inhibition [19]: Active | Activity [20]: inactive | Activity [21]: inactive | inhibition [22]: Active | inhibition [23]: Active | inhibition [24]: Active | Activity [25]: inactive | Activity [26]: Active | Activity [27]: inactive | Activity [28]: Active | Activity [29]: Active | inhibition [30]: Active | inhibition [31]: Active | inhibition [32]: Active | Activity [33]: Active | inhibition [34]: Active | Activity [35]: Active | Activity [36]: inactive | Activity [37]: inactive | Activity [38]: Active | inhibition [40]: Active | inhibition [41]: Active | Activity [42]: Active
